In patent US5462926A (Biomeasure, Inc., priority 1993, dated 1995):
Read-outs that look alike come from different tables or passages of the source. Where a SMILES comes first, the peptide text is derived from it. Bridges are numbered along the chain shown (N, C = ends). Where no end group is shown, it is not given here. [ ]: non-standard residue; d: D form. 2Nal = N[C@@H](Cc1ccc2ccccc2c1)C(=O)O; Lys(Et2) = CCN(CC)CCCC[C@H](N)C(=O)O

Columns and labels:
rat NMB receptor = target: T1, rat NMB receptor (Rattus norvegicus, UniProt P24053); experiment: Binding of 125I-[D-Tyr0]NMB to NMB-R transfected BALB 3T3 cells
T1 construct: a full length NMB-preferring bombesin receptor clone generated from rat esophagus; expressed in transfected cells
T1 sequence (P24053 1-390): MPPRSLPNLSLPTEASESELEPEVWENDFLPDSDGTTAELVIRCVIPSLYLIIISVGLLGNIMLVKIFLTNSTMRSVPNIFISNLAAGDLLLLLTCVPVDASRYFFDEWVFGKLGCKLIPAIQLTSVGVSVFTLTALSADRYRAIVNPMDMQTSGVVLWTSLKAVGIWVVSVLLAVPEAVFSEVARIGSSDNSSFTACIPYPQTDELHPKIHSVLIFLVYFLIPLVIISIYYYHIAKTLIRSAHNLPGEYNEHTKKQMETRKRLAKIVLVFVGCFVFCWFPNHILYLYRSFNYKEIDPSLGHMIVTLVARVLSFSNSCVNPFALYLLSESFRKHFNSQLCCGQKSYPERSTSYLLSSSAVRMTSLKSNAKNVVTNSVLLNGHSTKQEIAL
Description: (§1) Cells were passaged every 3-4 days at confluence, using 0.1% trypsin in 1 mM EDTA. Rat glioblastoma C-6 tumor cells were maintained similarly and were passaged weekly at confluence. Both cell lines were cultured at 37° C. in a 5% CO2 atmosphere. Rat AR 42J pancreatic acinar cells were cultured in Dulbecco's modified Eagle's medium (DMEM) without antibiotics and supplemented with 10% (vol/vol) fetal calf serum. The incubation atmosphere consisted of 10% CO2 -90% humidified air at 37° C.

mu opioid receptors = target: T2, mu opioid receptors (Rattus norvegicus, UniProt P33535); experiment: Mu opioid membrane assay, [3H]DAGO, rat forebrain membranes; format: binding; conditions: Cheng method; unit inferred; read-out: affinity, [3H]DAGO, Rat Forebrain membranes (mu opioid receptors)
T2 construct: rat forebrain (TRH, mu and delta opioid membrane assays); from tissue; host or cells: rat forebrain membranes

somatostatin receptors = target: T3, somatostatin receptors (Rattus norvegicus, UniProt P30680); experiment: Somatostatin membrane receptor assay, 125I-[Tyr11]SS-14, AR 42J cell membranes; format: binding; conditions: Cheng method; table prints no unit (b360 gives nM for a Table 4 value); read-out: affinity, 125I-[Tyr11]SS-14, AR 42J Cell Membranes (somatostatin receptors)
T3 construct: endogenous in cells; host or cells: rat AR 42J pancreatic acinar tumor cell membranes

NMB receptor [1] = target: T4, NMB receptor (Rattus norvegicus, UniProt P24053); experiment: NMB membrane receptor assay, 125I-NMB, rat olfactory bulb membranes; format: binding; design: Membranes were prepared from rat olfactory bulb (NMB membrane receptor assay); from tissue; host or cells: rat olfactory bulb membranes; conditions: Cheng method; unit inferred; read-out: affinity, 125I-NMB, Rat Olfactory bulb membranes (neuromedin B receptors)
T4 sequence (P24053 1-390): T1 sequence (P24053 1-390)

GRP receptor [2] = target: T5, GRP receptor (Rattus norvegicus, UniProt P52500); experiment: GRP membrane receptor assay, 125I-[Tyr4]Bn, AR 42J cell membranes; format: binding; design: endogenous in cells; host or cells: rat AR 42J pancreatic acinar tumor cell membranes; conditions: read-out: affinity, 125I-[Tyr4]Bn, AR 42J Cell Membranes (GRP receptors); Cheng method; unit inferred
NMB receptor [3] = target: T4, NMB receptor; experiment: [3H]inositol phosphates in NMB-R transfected cells (alone or NMB-stimulated); format: cell-based; design: a full length NMB-preferring bombesin receptor clone generated from rat esophagus; expressed in transfected cells; conditions: NMB-R transfected cells; for [3H]IP, analog Alone (10 μM): analog 10 μM alone, control 13 ± 3; for [3H]IP, analog Plus NMB (3 nM): analog 10 μM plus NMB 3 nM, NMB without analog 186 ± 58
Description: as §1, with “As described previously [Wada, E., et al. Neuron 6:421 (1991)], BALB 3T3 cells expressing a stably transfected rat NMB receptor (NMB-R transfected cells) were obtained using calcium phosphate precipitation of a full length NMB-preferring bombesin receptor clone generated from rat esophagus and subcloned into a modified version of the pCD2 plasmid. Cells” for “Cells”
Measurement of phosphoinositides
Total phosphoinositides in C-6 cells and in NMB-R transfected cells were determined as described previously, with minor modifications [Benya, R. V. et al. Mol. Pharmacol. 42:1058 (1992); and Wang, L-H. et al. Biochem. Jo 286:641 (1992)]. Cells were grown to confluence in 24-well plates and then loaded with 100 μCi/ml myo-[2-^3 H]inositol in Dulbecco's modified essential medium with 2% fetal bovine serum at 37° C. for 48 hrs. Cells were washed and incubated in phosphoinositide buffer (standard buffer additionally containing 10 mM LiCl, 20 mM HEPES, 2 mM CaCl2, 2% BSA, and 1.2 mM MgSO4) for 15 min and then for 60 min at 37° C. with agonists at various concentrations or with 3 nM NMB (a half-maximal effective concentration) and possible antagonists at different concentrations. Reactions were halted using ice-cold 1% HCl in methanol, and the inositol phosphates (IP) were isolated as described previously [Bologna, M. et al. Cancer 63:1714 (1989); and Endo, T. et al. J. Endocrinolo 131:313 (1991)]. Briefly, after loading of the anion exchange column, free [^3 H]glycerophosphorylinositol was removed by washing with 5 mM disodium tetraborate in 60 mM sodium formate. Total [^3 H]inositol phosphates were then eluted using 100 mM formic acid in 1.0M ammonium formate as described previously [Benya, R. V. et al. Mol. Pharmacol. 42:1058 (1992); and Wang, L-H. et al. Biochem. J. 286:641 (1992 )].

[4] = target: T6, GRP receptors on rat pancreatic acini (Rattus norvegicus, UniProt P52500); experiment: Binding of 125I-[Tyr4]bombesin to pancreatic acini; conditions: read-out: Ki 125I-[Tyr4]Bn Binding, GRP Receptor, Rat Pancreatic Acini; Ki by Cheng method
T6 construct: from tissue; host or cells: dispersed pancreatic acini
Description: Nonsaturable binding was<10% of total binding in all experiments.

GRP receptor [5] = target: T5, GRP receptor; experiment: Amylase release from rat pancreatic acini (alone or Bn-stimulated); format: cell-based; design: from tissue; host or cells: dispersed pancreatic acini; conditions: for Amylase Release, analog Alone (10 μM): analog 10 μM alone, control 4 ± 1; for Amylase Release, analog Plus Bn (0.3 nM): analog 10 μM plus Bn 0.3 nM, Bn without analog 15 ± 1; for IC50: read-out: IC50 Amylase Release, GRP Receptor, Rat Pancreatic Acini
Description: pancreatic acini or [^3 H]myo[2H]inositolloaded NMBR transfected cell
were incubated either with no additives, the somatostatin octapeptide
analog, Bn, or NMB, or a combination for 30 min at 37° C.. Amylase
release from pancreatic acini was expressed at the indicated percent of
the total cellular amylase released during the incubation. [^3 H]IP i
expressed in dpm's. To test for inhibitory effects, the effect of
somatostatin analog (10 μM) was determined on 0.3 nM Bnstimulated

[6] = target: T7, NMB receptors on C-6 cells (Rattus norvegicus, UniProt P24053); experiment: Binding of 125I-[D-Tyr0]NMB to C-6 glioblastoma cells; conditions: Ki by Cheng method, read-out: Ki 125I-NMB Binding, NMB Receptor, C-6 Cells
T7 construct: endogenous in cells; host or cells: rat glioblastoma C-6 cells
T7 sequence (P24053 1-390): T1 sequence (P24053 1-390)
Description: Binding of ^125 I-[D-Tyr^0 ]NMB to C-6 glioblastoma and NMB-R transfected cells
Binding studies using rat glioblastoma C-6 or NMB-R transfected cells were performed as described previously [Benya, R. V. et al. Mol. Pharmacol. 42:1058 (1992); and Wang, L-H. et al. Biochem. J. 286:641 (1992)] by suspending disaggregated cells in binding buffer, which was composed of standing buffer ([…], 7.7 mM KCl, 1.0 mM EGTA, 0.02% soybean trypsin inhibitor) additionally containing 50 mM HEPES, 1 mM MgCl2, 1.5 mM CaCl2, 2.2 mM KH2 PO4, 0,015% glutamine, and 0.2% BSA (w/v) (pH 7.4). Incubations contained 75 pM ^125 I-[D-Tyr^0 ]NMB and 15×10^6 C-6 cells/ml or 2×10^6 NMB-R transfected cells/ml, for 60 min at 22° C. Nonsaturable binding of ^125 I-[D-Tyr^0 ]NMB was the amount of radioactivity associated with C-6 cells or NMB-R transfected cells when the incubation mixture contained […] NMB. Nonsaturable binding was<15% of total binding in all experiments; all values are reported herein as saturable binding (i.e., total minus nonsaturable binding).

[7] = 3 nM NMB, read-out: IC50 NMB-stimulated [3H]IP, NMB Receptor, Transfected Cells
[8] = NMB-R transfected BALB 3T3 cells, Ki by Cheng method, read-out: Ki 125I-NMB Binding, NMB Receptor, Transfected Cells
[9] = NMB-R transfected cells, value or range given for a group, read-out: K1, 125I-NMB binding to NMB-R transfected cells (text)

T5 sequence (P52500 whole entry): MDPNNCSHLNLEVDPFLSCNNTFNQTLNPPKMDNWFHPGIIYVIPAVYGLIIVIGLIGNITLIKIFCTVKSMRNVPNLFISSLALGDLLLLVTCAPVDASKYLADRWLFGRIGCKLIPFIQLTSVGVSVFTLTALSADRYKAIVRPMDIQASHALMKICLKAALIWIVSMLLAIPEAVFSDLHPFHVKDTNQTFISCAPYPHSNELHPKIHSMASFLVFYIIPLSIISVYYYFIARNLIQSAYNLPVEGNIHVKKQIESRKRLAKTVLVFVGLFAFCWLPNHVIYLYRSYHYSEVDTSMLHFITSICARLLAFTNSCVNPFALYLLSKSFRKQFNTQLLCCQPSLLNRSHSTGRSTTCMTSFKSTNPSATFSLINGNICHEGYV
T6 sequence (P52500 whole entry): as above
T2 sequence (P33535 whole entry): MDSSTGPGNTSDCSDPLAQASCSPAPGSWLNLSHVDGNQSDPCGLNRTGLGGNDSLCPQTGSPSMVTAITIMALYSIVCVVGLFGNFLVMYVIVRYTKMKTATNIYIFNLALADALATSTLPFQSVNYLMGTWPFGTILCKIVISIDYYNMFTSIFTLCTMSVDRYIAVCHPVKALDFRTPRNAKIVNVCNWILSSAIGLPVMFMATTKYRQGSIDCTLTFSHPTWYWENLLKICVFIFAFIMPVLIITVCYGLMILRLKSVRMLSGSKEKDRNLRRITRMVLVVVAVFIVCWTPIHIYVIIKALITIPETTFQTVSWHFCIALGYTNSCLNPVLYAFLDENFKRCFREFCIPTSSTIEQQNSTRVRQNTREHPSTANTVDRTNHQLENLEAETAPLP
T3 sequence (P30680 whole entry): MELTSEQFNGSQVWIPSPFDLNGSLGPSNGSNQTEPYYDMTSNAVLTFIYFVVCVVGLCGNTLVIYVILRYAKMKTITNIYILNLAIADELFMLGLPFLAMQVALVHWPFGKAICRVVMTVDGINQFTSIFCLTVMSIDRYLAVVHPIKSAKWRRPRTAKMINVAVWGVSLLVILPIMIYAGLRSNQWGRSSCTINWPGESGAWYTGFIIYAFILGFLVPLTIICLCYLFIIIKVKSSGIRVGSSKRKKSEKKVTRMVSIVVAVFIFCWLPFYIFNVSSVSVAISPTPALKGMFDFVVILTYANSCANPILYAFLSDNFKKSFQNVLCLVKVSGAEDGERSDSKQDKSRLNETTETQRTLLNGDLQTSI

Row | IC50 (NMB receptor [3]; [7]) | IC50 (NMB receptor [3]; 3 nM NMB, read-out: IC50 NMB-stimulated [3H]IP, Transfected Cells (values in μM)) | [3H]IP, analog Alone (10 μM) (NMB receptor [3]) | [3H]IP, analog Plus NMB (3 nM) (NMB receptor [3]) | Ki (rat NMB receptor; [8]) | fold by which cyclo SS-octa is more potent than the analog, 125I-NMB binding (rat NMB receptor; NMB-R transfected cells) | Ki (rat NMB receptor; [9]) | Ki [4] | Amylase Release, analog Alone (10 μM) (GRP receptor [5]) | Amylase Release, analog Plus Bn (0.3 nM) (GRP receptor [5]) | IC50 (GRP receptor [5]) | Ki [6] | effect at 10 μM on NMB-stimulated increase in [3H]IP (NMB receptor [3]; 10 μM, 3 nM NMB) | Compound | Kd (rat NMB receptor; NMB-R transfected cells, read-out: Kd of NMB for NMB receptors without cyclo SS-octa) | Ki (mu opioid receptors) | Ki (somatostatin receptors) | Ki (NMB receptor [1]) | Ki (GRP receptor [2])
1 |  |  |  |  |  |  |  |  |  |  |  |  |  | CSCC[C@H](NC(=O)[C@H](Cc1ccccc1)NC(=O)[C@H](Cc1c[nH]cn1)NC(=O)CNC(=O)[C@@H](NC(=O)[C@H](C)NC(=O)[C@H](Cc1c[nH]c2ccccc12)NC(=O)[C@H](CC(C)C)NC(=O)[C@H](CC(N)=O)NC(=O)CN)[C@@H](C)O)C(N)=O [NMB, neuromedin B, reference compound] | 0.0031 ± 0.0002 µM | > 10 µM | > 10000 nM | 0.0011 ± 0.0002 µM | 0.019 ± 0.001 µM
2 | 7.21 ± 2.79 µM | 7.2 to 9.8 µM | 11 ± 2 dym × 10^3 | 73 ± 15 dym × 10^3 | 3.95 ± 0.509 µM | 18 fold | 3.9 to 4.4 µM | > 10 µM | 5 ± 1 % total | 12 ± 1 % total | > 10 µM | 1.09 ± 0.038 µM |  | CCN(CC)CCCC[C@@H]1NC(=O)[C@@H](Cc2c[nH]c3ccccc23)NC(=O)[C@H](Cc2ccc(O)cc2)NC(=O)[C@@H](NC(=O)[C@H](N)Cc2ccccc2)CSSC[C@@H](C(=O)N[C@@H](Cc2ccc3ccccc3c2)C(N)=O)NC(=O)[C@H]([C@@H](C)O)NC1=O [Analog #16, H2 -D-Phe-Cys-Tyr-D-TrP-Lys(diEt)-Thr-Cys-Nal-NH2] (H-[dF]CY[dW][Lys(Et2)]TC[2Nal]-NH2; disulfide 2-7) |  |  |  |  | 
3 | > 10 µM |  | 11 ± 2 dym × 10^3 | 188 ± 30 dym × 10^3 | 16.4 ± 4.46 µM | 69 fold | 14 to 19 µM | > 10 µM | 3 ± 1 % total | 14 ± 2 % total | > 10 µM | 8.29 ± 2.43 µM | no effect | C[C@@H](O)[C@H](NC(=O)[C@@H]1CSSC[C@H](NC(=O)[C@H](N)Cc2ccc3ccccc3c2)C(=O)N[C@@H](Cc2ccc(O)cc2)C(=O)N[C@H](Cc2c[nH]c3ccccc23)C(=O)N[C@@H](CCCCN)C(=O)N[C@@H]([C@@H](C)O)C(=O)N1)C(N)=O [Analog #6] |  |  |  |  | 
4 |  |  |  |  |  |  |  |  |  |  |  |  |  | gastrin-releasing peptide (VPLPAGGGTVLTKMYPRGNHWAVGHLM; ends and bridges not checked; UniProt P07492 24-50, looked up) [GRP, mammalian bombesin-related peptide, from Peninsula Laboratories, reference compound] |  | > 10 µM | > 10000 nM | 0.297 ± 0.015 µM | 
